For six molecules, % of control, % of activity and % of inhibition results are on record in ChEMBL document CHEMBL5465560, “Selectivity Literature for EUbOPEN Chemogenomic Library” (2024).

Assay [1] concerns the target Phosphatidylinositol 4-kinase beta (Homo sapiens, UniProt Q9UBF8). Kind of assay: Selectivity interaction (Ambit KINOMEscan and KiNATiv profiling in Jurkat cells) EUB0000090b PI4KB. Type of assay: cell-based. The conditions noted are these: at 1 µM.
For assay [2], the target named is T1, Cyclin-G-associated kinase (Homo sapiens) (UniProt O14976).
T1 sequence (whole entry): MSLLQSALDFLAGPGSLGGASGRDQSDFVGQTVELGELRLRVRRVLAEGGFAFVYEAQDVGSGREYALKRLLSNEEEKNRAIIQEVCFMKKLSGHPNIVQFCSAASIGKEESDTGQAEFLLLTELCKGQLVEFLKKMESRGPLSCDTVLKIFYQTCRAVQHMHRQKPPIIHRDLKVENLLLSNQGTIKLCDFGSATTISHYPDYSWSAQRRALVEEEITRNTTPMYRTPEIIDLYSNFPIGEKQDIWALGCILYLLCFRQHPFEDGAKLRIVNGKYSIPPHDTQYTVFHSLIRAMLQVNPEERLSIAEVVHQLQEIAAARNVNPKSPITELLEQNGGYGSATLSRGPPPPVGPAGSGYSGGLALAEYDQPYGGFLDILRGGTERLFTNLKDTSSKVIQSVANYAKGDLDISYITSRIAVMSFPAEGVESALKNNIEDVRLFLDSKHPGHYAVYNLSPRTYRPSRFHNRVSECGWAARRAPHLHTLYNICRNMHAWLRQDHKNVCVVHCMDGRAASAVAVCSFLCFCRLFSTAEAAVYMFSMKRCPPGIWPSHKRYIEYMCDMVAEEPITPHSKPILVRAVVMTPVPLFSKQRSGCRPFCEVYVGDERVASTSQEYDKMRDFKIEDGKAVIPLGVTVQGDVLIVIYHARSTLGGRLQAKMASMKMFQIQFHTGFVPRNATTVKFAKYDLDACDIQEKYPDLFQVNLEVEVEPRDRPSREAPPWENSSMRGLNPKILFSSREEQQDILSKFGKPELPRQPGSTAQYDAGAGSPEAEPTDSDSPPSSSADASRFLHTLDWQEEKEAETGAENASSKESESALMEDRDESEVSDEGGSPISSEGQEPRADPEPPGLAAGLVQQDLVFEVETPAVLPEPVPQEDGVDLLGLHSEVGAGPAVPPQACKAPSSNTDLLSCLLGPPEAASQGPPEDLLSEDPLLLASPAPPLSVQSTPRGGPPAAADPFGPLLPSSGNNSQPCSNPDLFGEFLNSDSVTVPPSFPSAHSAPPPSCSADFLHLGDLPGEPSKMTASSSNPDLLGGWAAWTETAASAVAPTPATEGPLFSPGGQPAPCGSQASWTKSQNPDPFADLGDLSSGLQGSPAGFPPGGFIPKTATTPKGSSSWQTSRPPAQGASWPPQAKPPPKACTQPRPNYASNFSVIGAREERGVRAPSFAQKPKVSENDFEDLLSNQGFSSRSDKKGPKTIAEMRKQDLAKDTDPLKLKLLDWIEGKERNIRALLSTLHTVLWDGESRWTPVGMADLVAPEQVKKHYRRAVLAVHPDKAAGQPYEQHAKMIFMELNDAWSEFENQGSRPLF
Nature of the assay: Selectivity interaction (Ambit KINOMEscan and KiNATiv profiling in Jurkat cells) EUB0000090b GAK. It is filed as cell-based. The conditions noted are these: at 1 µM.

In assay [3] the target is Histone-lysine N-methyltransferase KMT5B (Homo sapiens) (UniProt Q4FZB7). Kind of assay: Selectivity interaction (Methyltransferase screen (radiometric assays, panel of 8 PRMTs, 21 protein lysine methyltransferases, 3 DNA methyltransferases, and one RNA methyltransferase)) EUB0000271b SUV420H1.
Assay [4] has as its target Serine/threonine-protein kinase WNK3 (Homo sapiens) (UniProt Q9BYP7). Nature of the assay: Selectivity interaction (KinomeScan (DiscoverX)) EUB0000607a WNK3. The conditions noted are these: at 10 µM.
Assay [5] deals with T2, Receptor-interacting serine/threonine-protein kinase 4 (Homo sapiens) (UniProt P57078).
T2 sequence (whole entry): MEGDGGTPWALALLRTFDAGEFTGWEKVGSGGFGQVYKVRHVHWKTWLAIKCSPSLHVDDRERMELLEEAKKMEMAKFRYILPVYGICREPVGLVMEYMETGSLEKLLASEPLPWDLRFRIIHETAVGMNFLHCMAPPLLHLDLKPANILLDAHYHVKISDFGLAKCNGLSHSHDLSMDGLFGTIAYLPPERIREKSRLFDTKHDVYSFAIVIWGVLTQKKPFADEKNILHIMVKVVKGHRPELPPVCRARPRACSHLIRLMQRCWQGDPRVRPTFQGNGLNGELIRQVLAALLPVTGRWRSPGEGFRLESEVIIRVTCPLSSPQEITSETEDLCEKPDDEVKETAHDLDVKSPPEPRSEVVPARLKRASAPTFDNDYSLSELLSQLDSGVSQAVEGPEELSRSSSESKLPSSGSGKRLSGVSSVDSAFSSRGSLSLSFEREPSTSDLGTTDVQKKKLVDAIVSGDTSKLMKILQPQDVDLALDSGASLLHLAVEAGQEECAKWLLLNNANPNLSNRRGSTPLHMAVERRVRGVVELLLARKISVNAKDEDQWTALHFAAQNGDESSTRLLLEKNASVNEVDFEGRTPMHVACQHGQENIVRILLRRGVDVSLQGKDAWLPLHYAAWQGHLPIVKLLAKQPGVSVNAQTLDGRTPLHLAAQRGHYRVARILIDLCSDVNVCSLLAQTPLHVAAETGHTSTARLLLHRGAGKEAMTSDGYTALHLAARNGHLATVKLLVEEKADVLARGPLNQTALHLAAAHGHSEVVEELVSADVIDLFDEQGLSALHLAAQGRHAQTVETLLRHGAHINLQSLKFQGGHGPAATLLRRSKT
Nature of the assay: Selectivity interaction (KinomeScan (DiscoverX)) EUB0000655a RIPK4. The conditions noted are these: at 10 µM.

Assay [6] concerns the target Phosphatidylinositol 4,5-bisphosphate 3-kinase catalytic subunit alpha isoform (Homo sapiens) (UniProt P42336). Nature of the assay: Selectivity interaction (Kinase panel (literature)) EUB0001199aCl PIK3CA. The conditions noted are these: at 1 µM.
For assay [7], the target named is Receptor tyrosine-protein kinase erbB-3 (Homo sapiens) (UniProt P21860). Nature of the assay: Selectivity interaction (KinomeScan (DiscoverX)) EUB0000618a ERBB3. The conditions noted are these: at 10 µM.
Chain of Receptor tyrosine-protein kinase erbB-3 (Homo sapiens) (P21860 whole entry): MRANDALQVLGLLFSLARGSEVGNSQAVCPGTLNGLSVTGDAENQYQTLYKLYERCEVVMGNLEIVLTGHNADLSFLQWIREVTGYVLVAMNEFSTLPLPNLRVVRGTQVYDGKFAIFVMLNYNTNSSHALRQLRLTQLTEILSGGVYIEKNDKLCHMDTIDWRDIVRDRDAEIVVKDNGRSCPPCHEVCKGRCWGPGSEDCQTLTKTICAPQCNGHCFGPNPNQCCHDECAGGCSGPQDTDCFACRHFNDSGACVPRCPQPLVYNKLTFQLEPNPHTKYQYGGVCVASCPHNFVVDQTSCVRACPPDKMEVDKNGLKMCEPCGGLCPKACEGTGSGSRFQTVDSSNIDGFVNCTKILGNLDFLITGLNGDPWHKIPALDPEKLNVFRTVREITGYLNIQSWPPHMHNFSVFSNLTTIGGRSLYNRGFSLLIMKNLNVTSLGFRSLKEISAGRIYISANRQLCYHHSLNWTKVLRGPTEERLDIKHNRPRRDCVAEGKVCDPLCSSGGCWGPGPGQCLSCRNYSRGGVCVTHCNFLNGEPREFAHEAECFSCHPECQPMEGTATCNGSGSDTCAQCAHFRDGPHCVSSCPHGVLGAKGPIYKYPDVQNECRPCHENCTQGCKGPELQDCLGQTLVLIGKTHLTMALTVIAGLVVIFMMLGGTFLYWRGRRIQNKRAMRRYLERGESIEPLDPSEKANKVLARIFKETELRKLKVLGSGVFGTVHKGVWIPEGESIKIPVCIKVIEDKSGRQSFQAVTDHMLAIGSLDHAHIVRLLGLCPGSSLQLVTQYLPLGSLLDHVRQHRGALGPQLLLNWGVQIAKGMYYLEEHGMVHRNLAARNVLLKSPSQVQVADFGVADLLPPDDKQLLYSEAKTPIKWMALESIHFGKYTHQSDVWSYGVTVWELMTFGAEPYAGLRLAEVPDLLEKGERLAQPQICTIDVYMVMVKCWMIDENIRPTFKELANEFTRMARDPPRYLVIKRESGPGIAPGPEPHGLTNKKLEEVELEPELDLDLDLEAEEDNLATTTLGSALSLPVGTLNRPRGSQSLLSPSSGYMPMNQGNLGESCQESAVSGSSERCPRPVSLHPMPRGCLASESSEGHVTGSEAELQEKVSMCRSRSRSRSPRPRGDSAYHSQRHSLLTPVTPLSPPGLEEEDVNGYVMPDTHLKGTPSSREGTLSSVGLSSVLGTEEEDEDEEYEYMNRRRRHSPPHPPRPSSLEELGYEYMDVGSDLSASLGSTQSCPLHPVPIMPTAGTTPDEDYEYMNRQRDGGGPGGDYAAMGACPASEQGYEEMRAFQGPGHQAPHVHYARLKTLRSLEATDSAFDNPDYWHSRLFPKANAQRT

Chain of Histone-lysine N-methyltransferase KMT5B (Homo sapiens) (Q4FZB7 whole entry, looked up): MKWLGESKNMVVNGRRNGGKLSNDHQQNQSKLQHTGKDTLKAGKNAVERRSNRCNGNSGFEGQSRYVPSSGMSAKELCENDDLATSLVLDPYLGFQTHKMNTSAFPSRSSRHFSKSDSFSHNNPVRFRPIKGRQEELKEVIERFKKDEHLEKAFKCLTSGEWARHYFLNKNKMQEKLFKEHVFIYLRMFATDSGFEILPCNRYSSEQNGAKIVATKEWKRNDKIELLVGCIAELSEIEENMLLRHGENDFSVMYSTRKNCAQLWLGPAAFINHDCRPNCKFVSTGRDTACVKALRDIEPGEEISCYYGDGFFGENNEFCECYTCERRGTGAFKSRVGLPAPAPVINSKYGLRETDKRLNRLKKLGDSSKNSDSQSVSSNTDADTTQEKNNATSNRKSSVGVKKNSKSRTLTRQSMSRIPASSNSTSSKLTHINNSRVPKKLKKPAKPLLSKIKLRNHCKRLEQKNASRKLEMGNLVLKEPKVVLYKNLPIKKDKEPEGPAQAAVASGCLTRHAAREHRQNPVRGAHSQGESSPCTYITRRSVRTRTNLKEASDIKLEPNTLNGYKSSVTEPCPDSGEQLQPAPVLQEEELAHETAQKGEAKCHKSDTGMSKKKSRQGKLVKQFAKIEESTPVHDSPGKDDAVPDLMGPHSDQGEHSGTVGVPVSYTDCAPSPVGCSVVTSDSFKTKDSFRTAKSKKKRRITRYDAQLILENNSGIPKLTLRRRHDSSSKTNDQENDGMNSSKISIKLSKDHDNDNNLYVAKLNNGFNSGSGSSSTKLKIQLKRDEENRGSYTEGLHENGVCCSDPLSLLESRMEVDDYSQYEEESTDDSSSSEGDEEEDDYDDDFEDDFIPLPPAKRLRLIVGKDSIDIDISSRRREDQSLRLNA
Chain of Phosphatidylinositol 4,5-bisphosphate 3-kinase catalytic subunit alpha isoform (Homo sapiens) (P42336 whole entry, canonical isoform): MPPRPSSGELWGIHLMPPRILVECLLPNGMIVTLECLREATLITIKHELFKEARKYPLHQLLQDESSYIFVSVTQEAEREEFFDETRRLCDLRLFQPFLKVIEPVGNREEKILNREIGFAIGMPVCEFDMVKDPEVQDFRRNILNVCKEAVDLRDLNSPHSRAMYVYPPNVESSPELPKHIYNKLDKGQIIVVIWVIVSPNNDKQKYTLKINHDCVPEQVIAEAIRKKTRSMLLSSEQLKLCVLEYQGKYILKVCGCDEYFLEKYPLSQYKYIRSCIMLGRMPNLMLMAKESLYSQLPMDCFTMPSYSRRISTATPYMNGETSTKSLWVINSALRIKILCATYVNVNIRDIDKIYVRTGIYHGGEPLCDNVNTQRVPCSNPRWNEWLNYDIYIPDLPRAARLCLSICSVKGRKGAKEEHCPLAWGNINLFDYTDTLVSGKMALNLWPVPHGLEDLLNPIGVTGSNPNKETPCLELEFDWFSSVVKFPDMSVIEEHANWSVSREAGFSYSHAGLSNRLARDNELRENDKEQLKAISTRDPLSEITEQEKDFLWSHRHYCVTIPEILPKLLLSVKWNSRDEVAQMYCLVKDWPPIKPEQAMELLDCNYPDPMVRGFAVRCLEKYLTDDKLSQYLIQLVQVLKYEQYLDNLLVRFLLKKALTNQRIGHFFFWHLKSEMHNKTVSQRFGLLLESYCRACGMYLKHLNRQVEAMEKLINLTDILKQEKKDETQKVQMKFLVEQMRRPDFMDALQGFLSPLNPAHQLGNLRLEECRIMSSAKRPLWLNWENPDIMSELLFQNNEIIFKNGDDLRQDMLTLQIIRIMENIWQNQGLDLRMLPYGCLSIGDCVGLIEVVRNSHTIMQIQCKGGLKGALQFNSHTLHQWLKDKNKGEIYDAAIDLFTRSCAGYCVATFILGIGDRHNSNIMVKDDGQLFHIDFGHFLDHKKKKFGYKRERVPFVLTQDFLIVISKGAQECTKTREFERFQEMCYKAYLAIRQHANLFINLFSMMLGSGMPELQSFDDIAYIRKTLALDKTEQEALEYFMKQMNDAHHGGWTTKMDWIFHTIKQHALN
Chain of Serine/threonine-protein kinase WNK3 (Homo sapiens) (Q9BYP7 whole entry): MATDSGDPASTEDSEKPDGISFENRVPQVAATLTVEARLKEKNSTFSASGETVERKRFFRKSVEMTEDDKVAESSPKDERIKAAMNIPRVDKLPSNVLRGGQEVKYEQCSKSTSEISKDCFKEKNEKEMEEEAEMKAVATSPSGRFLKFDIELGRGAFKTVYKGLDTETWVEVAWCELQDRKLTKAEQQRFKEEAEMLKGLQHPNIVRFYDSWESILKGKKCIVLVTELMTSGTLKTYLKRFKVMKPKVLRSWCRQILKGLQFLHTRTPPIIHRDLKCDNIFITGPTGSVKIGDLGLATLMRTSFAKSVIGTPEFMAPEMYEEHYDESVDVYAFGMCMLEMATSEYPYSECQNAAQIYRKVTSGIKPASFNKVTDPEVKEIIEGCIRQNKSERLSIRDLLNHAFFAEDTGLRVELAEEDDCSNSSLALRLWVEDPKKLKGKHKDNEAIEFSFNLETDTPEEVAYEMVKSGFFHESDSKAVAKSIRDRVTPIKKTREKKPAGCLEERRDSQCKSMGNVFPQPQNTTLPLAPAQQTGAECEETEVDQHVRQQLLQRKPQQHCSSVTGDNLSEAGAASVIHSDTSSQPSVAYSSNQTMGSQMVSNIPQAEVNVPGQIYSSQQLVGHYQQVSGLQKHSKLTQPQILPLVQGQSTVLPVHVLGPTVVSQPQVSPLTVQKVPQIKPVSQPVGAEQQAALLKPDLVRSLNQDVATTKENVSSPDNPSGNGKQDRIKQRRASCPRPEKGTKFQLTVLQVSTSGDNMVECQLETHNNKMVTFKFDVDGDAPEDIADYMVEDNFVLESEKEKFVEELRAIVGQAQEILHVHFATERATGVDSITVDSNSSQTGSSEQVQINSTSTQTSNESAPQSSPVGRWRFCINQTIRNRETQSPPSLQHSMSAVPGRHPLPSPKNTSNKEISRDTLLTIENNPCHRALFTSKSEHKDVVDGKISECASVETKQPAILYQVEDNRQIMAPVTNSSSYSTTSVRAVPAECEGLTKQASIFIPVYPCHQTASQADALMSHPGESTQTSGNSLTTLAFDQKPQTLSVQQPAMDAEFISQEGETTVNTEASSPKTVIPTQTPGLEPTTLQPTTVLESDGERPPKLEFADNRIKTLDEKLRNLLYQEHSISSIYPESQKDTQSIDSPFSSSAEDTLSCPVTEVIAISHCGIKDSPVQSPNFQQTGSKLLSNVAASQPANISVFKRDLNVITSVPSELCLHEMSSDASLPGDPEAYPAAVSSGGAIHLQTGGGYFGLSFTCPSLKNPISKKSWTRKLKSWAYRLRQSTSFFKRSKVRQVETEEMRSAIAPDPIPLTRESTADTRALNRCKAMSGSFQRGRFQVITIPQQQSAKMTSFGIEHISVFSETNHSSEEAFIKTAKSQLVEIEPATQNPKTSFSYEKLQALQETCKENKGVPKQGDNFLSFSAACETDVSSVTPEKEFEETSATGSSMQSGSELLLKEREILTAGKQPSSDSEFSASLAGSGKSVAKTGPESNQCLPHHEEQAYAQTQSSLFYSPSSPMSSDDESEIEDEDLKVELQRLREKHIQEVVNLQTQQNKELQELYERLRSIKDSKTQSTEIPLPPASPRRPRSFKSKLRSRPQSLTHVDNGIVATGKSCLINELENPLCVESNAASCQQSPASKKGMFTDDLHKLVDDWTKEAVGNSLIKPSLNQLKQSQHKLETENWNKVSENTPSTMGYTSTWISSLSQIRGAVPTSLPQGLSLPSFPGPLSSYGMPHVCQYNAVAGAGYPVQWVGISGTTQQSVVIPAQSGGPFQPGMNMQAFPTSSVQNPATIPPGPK

Take `CN(C)C/C=C/C(=O)Nc1ccc(C(=O)N2CCCC(Nc3ncc(Cl)c(-c4c[nH]c5ccccc45)n3)C2)cc1` (stereo not drawn): the % of control in assay [1] is 88%; in assay [2], 93%.
For `Cc1cc(C)cc([C@@H]2c3cc(C)ccc3NC(=O)CN2C(=O)c2ccc(Br)s2)c1`, the % of activity in assay [3] (at 1 µM) was determined as 103%; in assay [3] (at 10 µM) it was 101%.
Take `CNC(=O)Nc1ccc(-c2nc(N3CC4CCC(C3)O4)c3cnn(C4CCC5(CC4)OCCO5)c3n2)cc1`: the % of control in assay [4] was found to be 100%.
As for `CN(C)CCOc1ccc(-c2nc(-c3ccncc3)c(-c3ccc4c(c3)CC/C4=N\O)[nH]2)cc1`, the % of control in assay [5] amounted to 100%.
Regarding `CN1Cc2nccc(-c3cn(C)nc3-c3ccc(F)cc3)c2C1=O`, the % of inhibition in assay [6] was found to be 1%.
In the case of `O[C@H]1CC[C@H](Nc2ncc3nc(Nc4c(F)cc(F)cc4F)n([C@H]4CCOC4)c3n2)CC1`, the % of control in assay [7] stood at 4.6%.
